From patent EP0163537A1, “1-Propanone derivatives and pharmaceutical compositions containing same” (priority 1984, dated 1985)
Counter-ions that a name gives are not always drawn. Like-named read-outs stand apart in the source and are kept apart here.

What was measured:
Type in all cases: in vivo
Male mice of ddY strain [1] = experiment: Test 3 Muscle relaxant activity (traction test, method of Courvoisier et al.); conditions: 15 minutes after administration, groups of ten
Description: Male mice of ddY strain, weighing 30 to 37 g, were used in groups of ten. The test compounds were dissolved in physiological saline and administered intraperitoneally in a dose of 50 or 75 mg/kg. […] This method involves a traction test in which the animal is hung by its forelimbs on a horizontal metal rod (2 mm in diameter) placed 20 cm above the floor and examined as to whether it can put its hindlimb on the rod or not.
Specifically, 15 minutes after administration of a test compound, the mouse was hung on the rod by its forelimbs. […] It had been confirmed in preliminary tests that, under normal conditions, all the mice could put their hindlimb on the rod within 5 seconds.

Male mice of ddY strain [2] = experiment: Test 1 Anti-nicotine activity (inhibition of nicotine-induced convulsive death); conditions: 200 mg/kg po, nicotine 2 mg/kg iv after 1 h, observed 1 h; for responders at 200 mg/kg: Mus musculus
Description: Male mice of ddY strain, weighing 28 to 33 g, were used in groups of eight or twelve. The test compounds were dissolved in distilled water and administered orally in a dose of 200 mg/kg. After an hour, nicotine was intravenously administered in a dose of 2 mg/kg.

Male mice of ddY strain [3] = experiment: Test 2 Anti-tremorine activity (inhibition of tremorine-induced tremor); conditions: for responders at 50 mg/kg: Mus musculus, po, read-out: Inhibition of tremor (%)
Description: Male mice of ddY strain, weighing 28 to 32 g, were used in groups of eight or ten. The test compounds were dissolved in distilled water and administered orally in a dose of 50 mg/kg. After 30 minutes, tremorine dihydrochloride was subcutaneously administered in a dose of 20 mg/kg. Then, the occurrence of tremor was observed after the lapse of 30 and 60 minutes.

[4] = Test 5 Acute toxicity (LD50, method of Behrens and Kärbar); conditions: mouse, in vivo, mice, observed for 7 days
Description: Male mice of ddY strain, weighing 25 to 30 g, were used in groups of five. The test compounds were dissolved in distilled water and administered orally in various doses. […] Then, the LDso was calculated according to the method of Behrens and Kärbar.

[5] = test system: Male rats of Wistar strain; experiment: Test 4 Effect on decerebrate rigidity induced by transection between superior and inferior colliculi; conditions: 20 mg/kg intravenously
Description: Male rats of Wistar strain, weighing 300 to 400 g, were used. The test compounds were dissolved in physiological saline and administered intravenously in doses of 10 mg/kg and 20 mg/kg.
Rigidity preparations were made according to the method of Fukuda et al. [The Japanese Journal of Pharmacology, 22, 457 (1972)]. Specifically, after a rat was fixed in a prone position under ether anesthesia, an incision was made in the head. The skull was removed around the occipital region to expose the brain. […] More than 2 hours after operation, the rat was mounted in a supine position on a fixing stand. Thus, the effect of the test compounds was evaluated by using the occurrence of rigidity in the antigravity muscles of the limbs as an index.

[6] = po, 1 h, Table-2a, 8 animals used
[7] = po, 1 h, Table-2b, 12 animals used
[8] = po, 1 h, Table-2c, 12 animals used
[9] = 0.5 h, Table-3a, 50 mg/kg po, After 30 min. from tremorine 20 mg/kg sc, 8 animals used
[10] = 0.5 h, Table-3b, 50 mg/kg po, After 30 min., 10 animals used
[11] = 0.5 h, Table-3d, 50 mg/kg po, After 30 min., 10 animals used
[12] = 1 h, Table-3a, 50 mg/kg po, After 60 min. from tremorine 20 mg/kg sc, 8 animals used
[13] = 1 h, Table-3b, 50 mg/kg po, After 60 min., 10 animals used
[14] = 1 h, Table-3d, 50 mg/kg po, After 60 min., 10 animals used
[15] = Table-3a, 50 mg/kg po, After 30 min. from tremorine 20 mg/kg sc, 8 animals used
[16] = Table-3a, 50 mg/kg po, After 60 min. from tremorine 20 mg/kg sc, 8 animals used
[17] = Table-3d, 50 mg/kg po, After 30 min., 10 animals used
[18] = Table-3d, 50 mg/kg po, After 60 min., 10 animals used

## Cc1ccc(C(=O)C(C)CN2CCCCC2)cc1 (stereo not drawn) [Tolperisone HCl, 2-methyl-1-(4-methylphenyl)-3-(1-piperidinyl)-1-propanone, reference compound]
Male mice of ddY strain [1]; Table-4a, 50 mg/kg ip
  Number of animals exhibiting muscle relaxation: 1
Male mice of ddY strain [1]; Table-4d, 75 mg/kg ip
  Number of animals exhibiting muscle relaxation: 1
Male mice of ddY strain [2]; [6]
  responders at 200 mg/kg: 0%
Male mice of ddY strain [2]; [7]
  responders at 200 mg/kg: 0%
Male mice of ddY strain [2]; [8]
  responders at 200 mg/kg: 8.3%
Male mice of ddY strain [3]; [9]
  responders at 50 mg/kg: 0%
Male mice of ddY strain [3]; [10]
  responders at 50 mg/kg: 0%
Male mice of ddY strain [3]; [11]
  responders at 50 mg/kg: 0%
Male mice of ddY strain [3]; [12]
  responders at 50 mg/kg: 0%
Male mice of ddY strain [3]; [13]
  responders at 50 mg/kg: 0%
Male mice of ddY strain [3]; [14]
  responders at 50 mg/kg: 0%
Male mice of ddY strain [3]; [15]
  Number of animals exhibiting no tremor: 0
Male mice of ddY strain [3]; [16]
  Number of animals exhibiting no tremor: 0
Male mice of ddY strain [3]; Table-3b, 50 mg/kg po, After 30 min., 10 animals used
  Number of animals exhibiting no tremor: 0
Male mice of ddY strain [3]; Table-3b, 50 mg/kg po, After 60 min., 10 animals used
  Number of animals exhibiting no tremor: 0
Male mice of ddY strain [3]; [17]
  Number of animals exhibiting no tremor: 0
Male mice of ddY strain [3]; [18]
  Number of animals exhibiting no tremor: 0
[4]; po, Table-5a
  LD50 at 168 h: 625 mg/kg
[4]; po, Table-5b
  LD50 at 168 h: 655 mg/kg
[4]; po, Table-5c
  LD50 at 168 h: 595 mg/kg

## CCCC(CN1CCCCC1)C(=O)c1ccc2c(c1)CCO2.Cl (stereo not drawn) [Example 99, 1-(2,3-Dihydro-5-benzofuranyl)-2-n-propyl-3-piperidino-1-propanone hydrochloride]
Male mice of ddY strain [1]; Table-4d, 75 mg/kg ip
  Number of animals exhibiting muscle relaxation: 2
Male mice of ddY strain [2]; [8]
  responders at 200 mg/kg: 25%
Male mice of ddY strain [2]; Table-2c, 12 animals used
  Number of surviving animals: 3
Male mice of ddY strain [3]; [11]
  responders at 50 mg/kg: 100%
Male mice of ddY strain [3]; [14]
  responders at 50 mg/kg: 90%

## CC(CN1CCCCC1)C(=O)c1ccc2c(c1)OCO2.Cl (stereo not drawn) [Example 57, 2-Methyl-1-(3,4-methylenedioxyphenyl)-3-piperidino-1-propanone hydrochloride]
Male mice of ddY strain [2]; Table-2b, 12 animals used
  responders at 200 mg/kg: 41.7%
  Number of surviving animals: 5
[5]
  rigidity of the forelimbs and hindlimbs: relaxed the rigidity similarly
[4]; Table-5b, oral
  LD50 at 168 h: 625 mg/kg

## CC(CN1CCCC1)C(=O)c1ccc(C2CC2)cc1.Cl (stereo not drawn) [Example 8, 1-(4-Cyclopropylphenyl)-2-methyl-3-(1-pyrrolidinyl)-1-propanone hydrochloride]
Male mice of ddY strain [1]; Table-4a, 50 mg/kg ip
  Number of animals exhibiting muscle relaxation: 7
Male mice of ddY strain [2]; [6]
  responders at 200 mg/kg: 62.5%
Male mice of ddY strain [2]; Table-2a, 8 animals used
  Number of surviving animals: 5
Male mice of ddY strain [3]; [9]
  responders at 50 mg/kg: 100%
Male mice of ddY strain [3]; [12]
  responders at 50 mg/kg: 87.5%
[4]; po, Table-5a
  LD50 at 168 h: 505 mg/kg

## CCCC(CN1CCCCC1)C(=O)c1ccc2c(c1)OCO2 (stereo not drawn) [Example 66, 1-(3,4-Methylenedioxyphenyl)-2-n-propyl-3-piperi-dino-1-propanone hydrochloride]
Male mice of ddY strain [2]; Table-2b, 12 animals used
  responders at 200 mg/kg: 58.3%
  Number of surviving animals: 7
[5]
  rigidity of the forelimbs and hindlimbs: relaxed the rigidity similarly
[4]; Table-5b, oral
  LD50 at 168 h: 625 mg/kg

## CCC(CN1CCCCC1)C(=O)c1ccc2c(c1)OCO2.Cl (stereo not drawn) [Example 53, 2-Ethyl-1-(3,4-methylenedioxyphenyl)-3-piperidino-1-propanone hydrochloride]
Male mice of ddY strain [2]; [7]
  responders at 200 mg/kg: 83.3%
Male mice of ddY strain [2]; Table-2b, 12 animals used
  Number of surviving animals: 10
[5]
  rigidity of the forelimbs and hindlimbs: relaxed the rigidity similarly
[4]; po, Table-5b
  LD50 at 168 h: 565 mg/kg

## CCC(CN1CCCC1)C(=O)c1ccc2c(c1)CCO2.Cl (stereo not drawn) [Example 95, 1-(2,3-Dihydro-5-benzofuranyl)-2-ethyl-3-(1-pyrrolidinyl)-1-propanone hydrochloride]
Male mice of ddY strain [2]; Table-2c, 12 animals used
  responders at 200 mg/kg: 16.7%
  Number of surviving animals: 2
Male mice of ddY strain [3]; 0.5 h
  responders at 50 mg/kg: 100%
Male mice of ddY strain [3]; 1 h
  responders at 50 mg/kg: 100%
Male mice of ddY strain [3]; [17]
  Number of animals exhibiting no tremor: 10
Male mice of ddY strain [3]; [18]
  Number of animals exhibiting no tremor: 10

## CCc1ccc(C(=O)C(C)CN2CCCCC2)cc1 (stereo not drawn) [Eperisone HCl, Eperisone, reference compound]
Male mice of ddY strain [1]; Table-4a, 50 mg/kg ip
  Number of animals exhibiting muscle relaxation: 2
Male mice of ddY strain [1]; Table-4d, 75 mg/kg ip
  Number of animals exhibiting muscle relaxation: 2
Male mice of ddY strain [2]; [6]
  responders at 200 mg/kg: 50%
Male mice of ddY strain [2]; [7]
  responders at 200 mg/kg: 50%
Male mice of ddY strain [2]; [8]
  responders at 200 mg/kg: 50%
Male mice of ddY strain [3]; [9]
  responders at 50 mg/kg: 87.5%
Male mice of ddY strain [3]; [10]
  responders at 50 mg/kg: 80%
Male mice of ddY strain [3]; [11]
  responders at 50 mg/kg: 80%
Male mice of ddY strain [3]; [12]
  responders at 50 mg/kg: 0%
Male mice of ddY strain [3]; [13]
  responders at 50 mg/kg: 10%
Male mice of ddY strain [3]; [14]
  responders at 50 mg/kg: 20%
[4]; po, Table-5a
  LD50 at 168 h: 595 mg/kg
[4]; po, Table-5b
  LD50 at 168 h: 475 mg/kg
[4]; po, Table-5c
  LD50 at 168 h: 565 mg/kg

## CCC(CN1CCCCC1)C(=O)c1ccc(C2CC2)cc1.Cl (stereo not drawn) [Example 11, 1-(4-Cyclopropylphenyl)-2-ethyl-3-piperidino-1-propanone hydrochloride]
Male mice of ddY strain [2]; [6]
  responders at 200 mg/kg: 37.5%
Male mice of ddY strain [2]; Table-2a, 8 animals used
  Number of surviving animals: 3
Male mice of ddY strain [3]; [9]
  responders at 50 mg/kg: 100%
Male mice of ddY strain [3]; [12]
  responders at 50 mg/kg: 100%
Male mice of ddY strain [3]; [15]
  Number of animals exhibiting no tremor: 8
Male mice of ddY strain [3]; [16]
  Number of animals exhibiting no tremor: 8

## CC(CN1CCCCCC1)C(=O)c1ccc(C2CC2)cc1.Cl (stereo not drawn) [Example 9, 1-(4-Cyclopropylphenyl)-2-methyl-3-(hexahydro-1H-azepin-1-yl)-1-propanone hydrochloride]
Male mice of ddY strain [1]; Table-4a, 50 mg/kg ip
  Number of animals exhibiting muscle relaxation: 7
Male mice of ddY strain [2]; [6]
  responders at 200 mg/kg: 75%
Male mice of ddY strain [2]; Table-2a, 8 animals used
  Number of surviving animals: 6
Male mice of ddY strain [3]; [9]
  responders at 50 mg/kg: 100%
Male mice of ddY strain [3]; [12]
  responders at 50 mg/kg: 87.5%
[4]; po, Table-5a
  LD50 at 168 h: 655 mg/kg

## 1-(2,3-Dihydro-5-benzofuranyl)-2-ethyl-3-piperidino-1-propanone hydrochloride [Example 89]
Male mice of ddY strain [1]; Table-4d, 75 mg/kg ip
  Muscle relaxation rate (%): 50%
  Number of animals exhibiting muscle relaxation: 5
Male mice of ddY strain [2]; Table-2c, 12 animals used
  Inhibition of death (%): 66.7%
  Number of surviving animals: 8
Male mice of ddY strain [3]; [17]
  Inhibition of tremor (%): 100%
  Number of animals exhibiting no tremor: 10
Male mice of ddY strain [3]; [18]
  Inhibition of tremor (%): 100%
  Number of animals exhibiting no tremor: 10

## CC(CN1CCCCC1)C(=O)c1ccc(C2CCCCC2)cc1.Cl (stereo not drawn) [Example 48, 1-(4-Cyclohexylphenyl)-2-methyl-3-piperidino-1-propanone hydrochloride]
Male mice of ddY strain [2]; [6]
  responders at 200 mg/kg: 62.5%
Male mice of ddY strain [2]; Table-2a, 8 animals used
  Number of surviving animals: 5
Male mice of ddY strain [3]; [9]
  responders at 50 mg/kg: 100%
Male mice of ddY strain [3]; [12]
  responders at 50 mg/kg: 37.5%
